Measured values as given in DBAASP.
≈ marks a conversion by molar mass, not a printed value. Blank lines part the entries; values can stand above or below the compound they belong to.

Columns and labels:
Assay in all cases: ≥ marks a high value that may be exact or a test limit, other limits are often not marked, values filed in µg/mL are converted to µM
[1] = tested on: Bacillus subtilis AB91021
[2] = tested on: Bacillus thuringiensis AB92037
[3] = tested on: Escherichia coli AB94012
[4] = tested on: Micrococcus luteus AB93113
[5] = tested on: Pseudomonas aeruginosa AB93066
[6] = tested on: Staphylococcus aureus AB94004
[7] = tested on: Staphylococcus aureus P1369
[8] = tested on: Staphylococcus aureus P1374
[9] = tested on: Staphylococcus aureus P1386
[10] = tested on: Staphylococcus epidermidis P1111
[11] = tested on: Staphylococcus epidermidis P1389
[12] = tested on: Bacillus megaterium ATCC 9885
[13] = tested on: Candida albicans
[14] = tested on: Enterobacter cloacae ATCC 11775
[15] = tested on: Escherichia coli 363 ATCC 11775
[16] = tested on: Klebsiella pneumoniae
[17] = tested on: Neisseria meningitidis
[18] = tested on: Pseudomonas aeruginosa
[19] = tested on: Saccharomyces cerevisiae
[20] = tested on: Salmonella enterica subsp. enterica serovar Enteritidis
[21] = tested on: Salmonella typhimurium
[22] = tested on: Staphylococcus aureus ATCC 25923
[23] = tested on: Staphylococcus haemolyticus
[24] = tested on: Vibrio cholerae
[25] = tested on: Bacillus subtilis ATCC 9372
[26] = tested on: Escherichia coli ATCC 8739
[27] = tested on: Proteus vulgaris NCTC 4635
[28] = tested on: Pseudomonas aeruginosa ATCC 9027
[29] = tested on: Staphylococcus aureus ATCC 6538
[30] = tested on: Acinetobacter baumannii
[31] = tested on: Candida albicans ATCC 90028
[32] = tested on: Escherichia coli ATCC 25726
[33] = tested on: Klebsiella pneumoniae ATCC 700603
[34] = tested on: Proteus mirabilis ATCC 25933
[35] = tested on: Pseudomonas aeruginosa ATCC 27853
[36] = tested on: Staphylococcus aureus ATCC 29213
[37] = tested on: Staphylococcus epidermidis RP62A/1
[38] = tested on: Staphylococcus epidermidis RP62A
[39] = tested on: Stenotrophomonas maltophilia
[40] = tested on: Staphylococcus aureus CIP 53.156
[41] = tested on: Staphylococcus aureus
[42] = tested on: Staphylococcus xylosus ATCC 35033
[43] = tested on: Staphylococcus xylosus

SMILES: CC[C@H](C)[C@H](NC(=O)[C@H](C)NC(=O)[C@H](CO)NC(=O)[C@@H](NC(=O)[C@H](CC(C)C)NC(=O)CNC(=O)CNC(=O)[C@@H](NC(=O)[C@H](CC(C)C)NC(=O)[C@H](CO)NC(=O)[C@@H]1CCCN1C(=O)[C@H](CC(C)C)NC(=O)[C@H](CC(C)C)NC(=O)[C@H](CO)NC(=O)[C@H](Cc1ccccc1)NC(=O)[C@@H](N)Cc1ccccc1)[C@@H](C)CC)C(C)C)C(=O)N[C@@H](CCCCN)C(N)=O [FFSLLPSLIGGLVSAIK]
- MIC [1]: 28.4 µM (≈ 50 µg/mL)
- MIC [2]: 28.4 µM (≈ 50 µg/mL)
- MIC [3]: ≥ 56.7 µM
- MIC [4]: 11.3 µM (≈ 20 µg/mL)
- MIC [5]: ≥ 56.7 µM
- MIC [6]: 11.3 µM (≈ 20 µg/mL)
- MIC [7]: 28.4 µM (≈ 50 µg/mL)
- MIC [8]: 28.4 µM (≈ 50 µg/mL)
- MIC [9]: 28.4 µM (≈ 50 µg/mL)
- MIC [10]: 11.3 µM (≈ 20 µg/mL)
- MIC [11]: 28.4 µM (≈ 50 µg/mL)

SMILES: CC[C@H](C)[C@H](N)C(=O)N[C@@H](CCCCN)C(=O)N[C@@H](CCCCN)C(=O)N[C@H](C(=O)N[C@@H](C)C(=O)N[C@@H](CO)C(=O)N[C@H](C(=O)O)C(C)C)C(C)C [IKKVASV]
- MIC [25]: ≥ 1380 µM
- MIC [26]: ≥ 1380 µM
- MIC [27]: ≥ 1380 µM
- MIC [28]: 1380 µM (≈ 1020 µg/mL)
- MIC [29]: > 1380 µM

The next lines start with results.

- MIC [12]: 12.5 µM (≈ 27.6 µg/mL)
- MIC [13]: 150 µM (≈ 332 µg/mL)
- MIC [14]: ≥ 100 µM
- MIC [15]: 12.5 µM (≈ 27.6 µg/mL)
- MIC [16]: 100 µM (≈ 221 µg/mL)
- MIC [17]: ≥ 100 µM
- MIC [18]: 100 µM (≈ 221 µg/mL)
- MIC [19]: ≥ 300 µM
- MIC [20]: 25 µM (≈ 55.3 µg/mL)
- MIC [21]: ≥ 50 µM
- MIC [22]: 50.5 µM (≈ 112 µg/mL)
SMILES: CC(C)C[C@H](NC(=O)[C@H](CC(C)C)NC(=O)[C@H](CCCCN)NC(=O)CNC(=O)[C@H](C)NC(=O)[C@@H](NC(=O)[C@H](CCCCN)NC(=O)[C@H](CC(C)C)NC(=O)[C@H](CC(C)C)NC(=O)[C@H](CC(=O)O)NC(=O)[C@@H](NC(=O)[C@@H](NC(=O)[C@@H](NC(=O)CN)C(C)C)C(C)C)[C@@H](C)O)[C@@H](C)O)C(=O)NCC(=O)N[C@@H](CC(N)=O)C(=O)N[C@@H](CC(C)C)C(=O)N[C@H](C(=O)NCC(=O)N[C@@H](CO)C(=O)N[C@@H](CC(C)C)C(=O)N[C@@H](CO)C(=O)NCC(N)=O)C(C)C [GVVTDLLKTAGKLLGNLVGSLSG]
- MIC [23]: ≥ 100 µM
- MIC [24]: 25 µM (≈ 55.3 µg/mL)

- MIC [30]: 6.25 µM (≈ 19.1 µg/mL)
- MIC [31]: ≥ 80 µM
- MIC [32]: 20 µM (≈ 61.3 µg/mL)
- MIC [33]: 20 µM (≈ 61.3 µg/mL)
- MIC [16]: 25 µM (≈ 76.6 µg/mL)
- MIC [34]: ≥ 100 µM
- MIC [35]: 40 µM (≈ 123 µg/mL)
- MIC [22]: 10 µM (≈ 30.6 µg/mL)
- MIC [36]: 12.5 µM (≈ 38.3 µg/mL)
- MIC [37]: 1.6 µM (≈ 4.9 µg/mL)
- MIC [38]: 3.1 µM (≈ 9.5 µg/mL)
- MIC [39]: 6.25 µM (≈ 19.1 µg/mL)
SMILES: CC[C@H](C)[C@H](N)C(=O)N[C@@H](CCCCN)C(=O)N[C@@H](CC(C)C)C(=O)N[C@@H](CO)C(=O)N1CCC[C@H]1C(=O)N[C@@H](CCC(=O)O)C(=O)N[C@H](C(=O)N[C@@H](CCCCN)C(=O)N[C@@H](CC(=O)O)C(=O)N[C@@H](CC(N)=O)C(=O)N[C@@H](CC(C)C)C(=O)N[C@@H](CCCCN)C(=O)N[C@@H](CCCCN)C(=O)N[C@H](C(=O)N[C@@H](CC(C)C)C(=O)N[C@@H](CCCCN)C(=O)NCC(=O)N[C@@H](C)C(=O)N[C@H](C(=O)N[C@@H](CCCCN)C(=O)NCC(=O)N[C@@H](C)C(=O)N[C@H](C(=O)N[C@@H](C)C(=O)N[C@H](C(=O)N[C@@H](C)C(=O)N[C@@H](CCCCN)C(=O)N[C@@H](CCSC)C(=O)N[C@H](C(N)=O)C(C)C)C(C)C)[C@@H](C)CC)[C@@H](C)CC)C(C)C)[C@@H](C)O [IKLSPETKDNLKKVLKGAIKGAIAVAKMV]

- MIC [40]: ≥ 57 µM
- MIC [41]: 15.4 µM (≈ 34 µg/mL)
- MIC [42]: 2.08 µM (≈ 4.6 µg/mL)
- MIC [43]: 1.35 µM (≈ 3 µg/mL)
SMILES: CC[C@H](C)[C@H](NC(=O)[C@@H](N)CCCCN)C(=O)N[C@@H](CCCCN)C(=O)N[C@H](C(=O)N1CCC[C@H]1C(=O)N[C@@H](Cc1c[nH]c2ccccc12)C(=O)NCC(=O)N[C@@H](CCCCN)C(=O)N[C@H](C(=O)N[C@@H](CCCCN)C(=O)N[C@@H](CC(=O)O)C(=O)N[C@@H](Cc1ccccc1)C(=O)N[C@@H](CC(C)C)C(=O)N[C@H](C(=O)NCC(=O)NCC(=O)N[C@@H](CCSC)C(=O)N[C@@H](CCCCN)C(=O)N[C@@H](C)C(=O)N[C@H](C(=O)O)C(C)C)C(C)C)C(C)C)[C@@H](C)CC [KIKIPWGKVKDFLVGGMKAV]
